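All cell lines were grown in 96-well plates and treated with compound for 48 hours. GI50 marks 50% less growth. TGI is the concentration that stops growth completely.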
What was measured:
Assay in all cases: growth of human tumour cells (NCI), 48 h
786-0 renal = tested on: 786-0 renal
A498 renal = tested on: A498 renal
A549 NSCLC = tested on: A549 NSCLC
ACHN renal = tested on: ACHN renal
CAKI-1 renal = tested on: CAKI-1 renal
CCRF-CEM leukemia = tested on: CCRF-CEM leukemia
COLO 205 colon = tested on: COLO 205 colon
DU-145 prostate = tested on: DU-145 prostate
HCC-2998 colon = tested on: HCC-2998 colon
HCT-116 colon = tested on: HCT-116 colon
HCT-15 colon = tested on: HCT-15 colon
HL-60(TB) leukemia = tested on: HL-60(TB) leukemia
HOP-62 NSCLC = tested on: HOP-62 NSCLC
HOP-92 NSCLC = tested on: HOP-92 NSCLC
HS 578T breast = tested on: HS 578T breast
HT29 colon = tested on: HT29 colon
IGROV1 ovarian = tested on: IGROV1 ovarian
K-562 leukemia = tested on: K-562 leukemia
KM12 colon = tested on: KM12 colon
LOX IMVI melanoma = tested on: LOX IMVI melanoma
M14 melanoma = tested on: M14 melanoma
MALME-3M melanoma = tested on: MALME-3M melanoma
MCF7 breast = tested on: MCF7 breast
MDA-MB-231 breast = tested on: MDA-MB-231 breast
MDA-MB-435 = tested on: MDA-MB-435
MDA-N = tested on: MDA-N
MOLT-4 leukemia = tested on: MOLT-4 leukemia
NCI-H226 lung = tested on: NCI-H226 lung
NCI-H23 lung = tested on: NCI-H23 lung
NCI-H460 lung = tested on: NCI-H460 lung
NCI-H522 lung = tested on: NCI-H522 lung
NCI/ADR-RES ovarian = tested on: NCI/ADR-RES ovarian
OVCAR-4 ovarian = tested on: OVCAR-4 ovarian
OVCAR-5 ovarian = tested on: OVCAR-5 ovarian
OVCAR-8 ovarian = tested on: OVCAR-8 ovarian
PC-3 prostate = tested on: PC-3 prostate
RPMI-8226 leukemia = tested on: RPMI-8226 leukemia
RXF 393 renal = tested on: RXF 393 renal
SF-268 CNS = tested on: SF-268 CNS
SF-295 CNS = tested on: SF-295 CNS
SF-539 CNS = tested on: SF-539 CNS
SK-MEL-2 melanoma = tested on: SK-MEL-2 melanoma
SK-MEL-28 melanoma = tested on: SK-MEL-28 melanoma
SK-MEL-5 melanoma = tested on: SK-MEL-5 melanoma
SK-OV-3 ovarian = tested on: SK-OV-3 ovarian
SN12C renal = tested on: SN12C renal
SNB-19 CNS = tested on: SNB-19 CNS
SNB-75 CNS = tested on: SNB-75 CNS
SR leukemia = tested on: SR leukemia
SW-620 colon = tested on: SW-620 colon
T-47D breast = tested on: T-47D breast
TK-10 renal = tested on: TK-10 renal
U251 CNS = tested on: U251 CNS
UACC-257 melanoma = tested on: UACC-257 melanoma
UACC-62 melanoma = tested on: UACC-62 melanoma
UO-31 renal = tested on: UO-31 renal
OVCAR-3 ovarian = tested on: OVCAR-3 ovarian
EKVX NSCLC = tested on: EKVX NSCLC

`CN1CCN(c2ccc3nc(-c4ccc5nc(CCCc6ccc(N(CCCl)CCCl)cc6)[nH]c5c4)[nH]c3c2)CC1` was tested, and the TGI (786-0 renal) was greater than 100 µM, the TGI (A498 renal) was greater than 100 µM and the TGI (A549 NSCLC) was greater than 100 µM. The TGI (ACHN renal) was greater than 100 µM, the TGI (CAKI-1 renal) was greater than 100 µM and the TGI (CCRF-CEM leukemia) was greater than 100 µM. For the same compound, the TGI (COLO 205 colon) was greater than 100 µM, the TGI (DU-145 prostate) was greater than 100 µM and the TGI (HCC-2998 colon) was greater than 100 µM. The TGI (HCT-116 colon) was greater than 100 µM, the TGI (HCT-15 colon) was greater than 100 µM and the TGI (HL-60(TB) leukemia) was greater than 100 µM. The TGI (HOP-62 NSCLC) was greater than 100 µM, the TGI (HOP-92 NSCLC) was greater than 100 µM and the TGI (HS 578T breast) was greater than 100 µM. It also gave a TGI (HT29 colon) greater than 100 µM, a TGI (IGROV1 ovarian) greater than 100 µM and a TGI (K-562 leukemia) greater than 100 µM. It also gave a TGI (KM12 colon) greater than 100 µM, a TGI (LOX IMVI melanoma) greater than 100 µM and a TGI (M14 melanoma) greater than 100 µM. For the same compound, the TGI (MALME-3M melanoma) was greater than 100 µM, the TGI (MCF7 breast) was greater than 100 µM and the TGI (MDA-MB-231 breast) was greater than 100 µM. It also gave a TGI (MDA-MB-435) greater than 100 µM, a TGI (MDA-N) greater than 100 µM and a TGI (MOLT-4 leukemia) greater than 100 µM. The TGI (NCI-H226 lung) was greater than 100 µM, the TGI (NCI-H23 lung) was greater than 100 µM and the TGI (NCI-H460 lung) was greater than 100 µM. For the same compound, the TGI (NCI-H522 lung) was greater than 100 µM, the TGI (NCI/ADR-RES ovarian) was greater than 100 µM and the TGI (OVCAR-4 ovarian) was greater than 100 µM. It also gave a TGI (OVCAR-5 ovarian) greater than 100 µM, a TGI (OVCAR-8 ovarian) greater than 100 µM and a TGI (PC-3 prostate) greater than 100 µM. For the same compound, the TGI (RPMI-8226 leukemia) was greater than 100 µM, the TGI (RXF 393 renal) was greater than 100 µM and the TGI (SF-268 CNS) was greater than 100 µM. It also gave a TGI (SF-295 CNS) greater than 100 µM, a TGI (SF-539 CNS) greater than 100 µM and a TGI (SK-MEL-2 melanoma) greater than 100 µM. It also gave a TGI (SK-MEL-28 melanoma) greater than 100 µM, a TGI (SK-MEL-5 melanoma) greater than 100 µM and a TGI (SK-OV-3 ovarian) greater than 100 µM. For the same compound, the TGI (SN12C renal) was greater than 100 µM, the TGI (SNB-19 CNS) was greater than 100 µM and the TGI (SNB-75 CNS) was greater than 100 µM. The TGI (SR leukemia) was greater than 100 µM, the TGI (SW-620 colon) was greater than 100 µM and the TGI (T-47D breast) was greater than 100 µM. It also gave a TGI (TK-10 renal) greater than 100 µM, a TGI (U251 CNS) greater than 100 µM and a TGI (UACC-257 melanoma) greater than 100 µM. For the same compound, the TGI (UACC-62 melanoma) was greater than 100 µM and the TGI (UO-31 renal) was greater than 100 µM.
With `CCCCSCCC(N)P(=O)(O)O` (stereo not drawn) the TGI (A549 NSCLC) was greater than 100 µM, the TGI (ACHN renal) was greater than 100 µM and the TGI (CAKI-1 renal) was greater than 100 µM. For the same compound, the TGI (CCRF-CEM leukemia) was greater than 100 µM, the TGI (COLO 205 colon) was greater than 100 µM and the TGI (DU-145 prostate) was greater than 100 µM. It also gave a TGI (HCC-2998 colon) greater than 100 µM, a TGI (HCT-116 colon) greater than 100 µM and a TGI (HCT-15 colon) greater than 100 µM. It also gave a TGI (HL-60(TB) leukemia) greater than 100 µM, a TGI (HOP-62 NSCLC) greater than 100 µM and a TGI (HOP-92 NSCLC) greater than 100 µM. For the same compound, the TGI (HS 578T breast) was greater than 100 µM, the TGI (HT29 colon) was greater than 100 µM and the TGI (IGROV1 ovarian) was greater than 100 µM. It also gave a TGI (K-562 leukemia) greater than 100 µM, a TGI (LOX IMVI melanoma) greater than 100 µM and a TGI (M14 melanoma) greater than 100 µM. The TGI (MCF7 breast) was greater than 100 µM, the TGI (MDA-MB-231 breast) was greater than 100 µM and the TGI (MDA-MB-435) was greater than 100 µM. The TGI (MDA-N) was greater than 100 µM, the TGI (MOLT-4 leukemia) was greater than 100 µM and the TGI (NCI-H226 lung) was greater than 100 µM. For the same compound, the TGI (NCI-H23 lung) was greater than 100 µM, the TGI (NCI-H460 lung) was greater than 100 µM and the TGI (NCI-H522 lung) was greater than 100 µM. For the same compound, the TGI (NCI/ADR-RES ovarian) was greater than 100 µM, the TGI (OVCAR-3 ovarian) was greater than 100 µM and the TGI (OVCAR-4 ovarian) was greater than 100 µM. The TGI (OVCAR-5 ovarian) was greater than 100 µM, the TGI (OVCAR-8 ovarian) was greater than 100 µM and the TGI (PC-3 prostate) was greater than 100 µM. For the same compound, the TGI (RPMI-8226 leukemia) was greater than 100 µM, the TGI (SF-295 CNS) was greater than 100 µM and the TGI (SK-MEL-2 melanoma) was greater than 100 µM. The TGI (SK-MEL-28 melanoma) was greater than 100 µM, the TGI (SK-MEL-5 melanoma) was greater than 100 µM and the TGI (SK-OV-3 ovarian) was greater than 100 µM. For the same compound, the TGI (SN12C renal) was greater than 100 µM, the TGI (SNB-19 CNS) was greater than 100 µM and the TGI (SNB-75 CNS) was greater than 100 µM. For the same compound, the TGI (SR leukemia) was greater than 100 µM, the TGI (SW-620 colon) was greater than 100 µM and the TGI (T-47D breast) was greater than 100 µM. For the same compound, the TGI (TK-10 renal) was greater than 100 µM, the TGI (U251 CNS) was greater than 100 µM and the TGI (UACC-257 melanoma) was greater than 100 µM. The TGI (UO-31 renal) was greater than 100 µM.
Work on `COc1ccc(/C=C2/C(=O)N(/C=C3\C(=O)Oc4ccccc4C3=O)C(=NC(C)=O)N2C)cc1OC` yielded a TGI (786-0 renal) greater than 100 µM, a GI50 (A498 renal) greater than 100 µM and a TGI (A498 renal) greater than 100 µM. It also gave a TGI (A549 NSCLC) greater than 100 µM, a TGI (ACHN renal) greater than 100 µM and a TGI (CAKI-1 renal) greater than 100 µM. It also gave a TGI (CCRF-CEM leukemia) greater than 100 µM, a TGI (COLO 205 colon) greater than 100 µM and a TGI (DU-145 prostate) greater than 100 µM. For the same compound, the TGI (EKVX NSCLC) was greater than 100 µM, the TGI (HCC-2998 colon) was greater than 100 µM and the TGI (HCT-116 colon) was greater than 100 µM. It also gave a TGI (HCT-15 colon) greater than 100 µM, a TGI (HL-60(TB) leukemia) greater than 100 µM and a TGI (HOP-62 NSCLC) greater than 100 µM. The GI50 (HOP-92 NSCLC) was greater than 100 µM, the TGI (HOP-92 NSCLC) was greater than 100 µM and the TGI (HS 578T breast) was greater than 100 µM. For the same compound, the TGI (HT29 colon) was greater than 100 µM, the TGI (IGROV1 ovarian) was greater than 100 µM and the TGI (K-562 leukemia) was greater than 100 µM. It also gave a TGI (KM12 colon) greater than 100 µM, a TGI (LOX IMVI melanoma) greater than 100 µM and a TGI (M14 melanoma) greater than 100 µM. For the same compound, the TGI (MALME-3M melanoma) was greater than 100 µM, the TGI (MCF7 breast) was greater than 100 µM and the TGI (MDA-MB-231 breast) was greater than 100 µM. It also gave a TGI (MDA-MB-435) greater than 100 µM, a TGI (MDA-N) greater than 100 µM and a TGI (MOLT-4 leukemia) greater than 100 µM. For the same compound, the TGI (NCI-H226 lung) was greater than 100 µM, the TGI (NCI-H23 lung) was greater than 100 µM and the TGI (NCI-H460 lung) was greater than 100 µM. It also gave a TGI (NCI-H522 lung) greater than 100 µM, a TGI (NCI/ADR-RES ovarian) greater than 100 µM and a TGI (OVCAR-3 ovarian) greater than 41.7 µM. The TGI (OVCAR-4 ovarian) was greater than 100 µM, the TGI (OVCAR-5 ovarian) was greater than 100 µM and the TGI (OVCAR-8 ovarian) was greater than 100 µM. It also gave a TGI (PC-3 prostate) greater than 100 µM, a TGI (RPMI-8226 leukemia) greater than 100 µM and a TGI (RXF 393 renal) greater than 100 µM. It also gave a TGI (SF-268 CNS) greater than 100 µM, a TGI (SF-295 CNS) greater than 100 µM and a TGI (SF-539 CNS) greater than 100 µM. For the same compound, the TGI (SK-MEL-2 melanoma) was greater than 100 µM, the TGI (SK-MEL-28 melanoma) was greater than 100 µM and the TGI (SK-MEL-5 melanoma) was greater than 100 µM. For the same compound, the TGI (SK-OV-3 ovarian) was greater than 100 µM, the TGI (SN12C renal) was greater than 100 µM and the GI50 (SNB-19 CNS) was greater than 100 µM. It also gave a TGI (SNB-19 CNS) greater than 100 µM, a TGI (SNB-75 CNS) greater than 100 µM and a TGI (SR leukemia) greater than 100 µM. For the same compound, the TGI (SW-620 colon) was greater than 100 µM, the TGI (T-47D breast) was greater than 100 µM and the GI50 (TK-10 renal) was greater than 100 µM. It also gave a TGI (TK-10 renal) greater than 100 µM, a TGI (U251 CNS) greater than 100 µM and a TGI (UACC-257 melanoma) greater than 100 µM. It also gave a TGI (UACC-62 melanoma) greater than 100 µM, a GI50 (UO-31 renal) greater than 100 µM and a TGI (UO-31 renal) greater than 100 µM.

Reference: PubChem BioAssay (NCI)
